Source: patent publication US6699872B2, “N-substituted urea inhibitors of farnesyl-protein transferase” (Schering Corporation, priority 1997, dated 2004)

Columns and labels:
[1] = tested on: Ras processing in COS cells; assay: Cell-based assay: COS cells, inhibition of Ras processing
Procedure: 2. Cell-Based Assay. COS IC50 values refer to the COS cells activity inhibition of Ras processing, are determined by the methods disclosed in […] or WO 95/10516.

[2] = target: T1, partially purified rat brain farnesyl protein transferase (FPT) (Rattus norvegicus, UniProt Q02293+Q04631); assay: In vitro enzyme assay: inhibition of Ras-CVLS farnesylation by FPT; type: biochemical
T1 construct: partially purified rat brain farnesyl protein transferase (FPT); from tissue; host or cells: rat brain

Row | Molecule | IC50 [2] | IC50 [1]
1 | COc1ccccc1NC(=O)N1CCC(CC(=O)N2CCC([C@H]3c4ncc(Br)cc4CCc4cc(Cl)cc(Br)c43)CC2)CC1 [Example 1] | 5.1 nM | 50 nM
2 | O=C(CC1CCN(C(=O)Nc2ccccc2)CC1)N1CCC([C@H]2c3ncc(Br)cc3CCc3cc(Cl)cc(Br)c32)CC1 [Example 2] | 5.4 nM | 33 nM
3 | COC(=O)[C@H](COC(C)(C)C)NC(=O)N1CCC(CC(=O)N2CCC([C@H]3c4ncc(Br)cc4CCc4cc(Cl)cc(Br)c43)CC2)CC1 [Example 8] | 8.7 nM | 120 nM
4 | CNC(=O)N1CCC(CC(=O)N2CCN(C3c4ccc(Cl)cc4CCc4cc(Br)cnc43)CC2)CC1 (stereo not shown) [Example 14, 4-[2-[4-(3-Bromo-8-chloro-6,11-dihydro-5H-benzo[5,6]-cyclohepta[1,2-b]pyridin-11-yl)-1-piperazinyl]-2-oxoethyl]-N-methyl-1-piperidinecarboxamide] | 50 nM | 750 nM
5 | CCCNC(=O)N1CCC(CC(=O)N2CCN(C3c4ccc(Cl)cc4CCc4cc(Br)cnc43)CC2)CC1 (stereo not shown) [Example 15, 4-[2-[4-(3-Bromo-8-chloro-6,11-dihydro-5H-benzo[5,6]cyclohepta[1,2-b]pyridin-11-yl)-1-piperazinyl]-2-oxoethyl]-N-propyl-1-piperidinecarboxamide] | 100 nM | 1500 nM
6 | CC(C)(C)NC(=O)N1CCC(CC(=O)N2CCN(C3c4ccc(Cl)cc4CCc4cc(Br)cnc43)CC2)CC1 (stereo not shown) [Example 16, 4-[2-[4-(3-Bromo-8-chloro-6,11-dihydro-5H-benzo[5,6]cyclohepta[1,2-b]pyridin-11-yl)-1-piperazinyl]-2-oxoethyl]-N-(1,1-dimethylethyl)-1-piperidinecarboxamide] | 108 nM | –
7 | (+)-Methyl alpha(S)-[[[4-[2-[4-[(3,10-dibromo-8-chloro-6,11-dihydro-5H-benzo[5,6]cyclohepta[1,2-b]pyridin-11(R)-yl)-1-piperidinyl]-2-oxoethyl]-1-piperidinyl]carbonyl]amino]-beta-methylbutanoate [Example 5] | 5 nM | 150 nM

The next molecules have a lower IC50 [2] than those just listed; values first:

Row | IC50 [2] | Molecule | IC50 [1]
8 | 1.9 nM | CNC(=O)N1CCC(CC(=O)N2CCC([C@H]3c4ncc(Br)cc4CCc4cc(Cl)cc(Br)c43)CC2)CC1 [Example 3] | –
9 | 2 nM | CCOC(=O)CNC(=O)N1CCC(CC(=O)N2CCC([C@H]3c4ncc(Br)cc4CCc4cc(Cl)cc(Br)c43)CC2)CC1 [Example 4] | –
10 | 1.7 nM | CCOC(=O)N1CCC(NC(=O)N2CCC(CC(=O)N3CCC([C@H]4c5ncc(Br)cc5CCc5cc(Cl)cc(Br)c54)CC3)CC2)CC1 [Example 6] | 20 nM
11 | 3.8 nM | O=C(CC1CCN(C(=O)N(CCO)CCO)CC1)N1CCC([C@H]2c3ncc(Br)cc3CCc3cc(Cl)cc(Br)c32)CC1 [Example 7] | 18 nM
12 | 3.3 nM | COC(=O)[C@H](CO)NC(=O)N1CCC(CC(=O)N2CCC([C@H]3c4ncc(Br)cc4CCc4cc(Cl)cc(Br)c43)CC2)CC1 [Example 9] | 110 nM
13 | 4.6 nM | NC(=O)[C@H](CO)NC(=O)N1CCC(CC(=O)N2CCC([C@H]3c4ncc(Br)cc4CCc4cc(Cl)cc(Br)c43)CC2)CC1 [Example 10] | 300 nM
14 | 3.1 nM | O=C(CC1CCN(C(=O)NCCO)CC1)N1CCC([C@H]2c3ncc(Br)cc3CCc3cc(Cl)cc(Br)c32)CC1 [Example 11] | 18 nM
15 | 0.8 nM | O=C(O)CNC(=O)N1CCC(CC(=O)N2CCC([C@H]3c4ncc(Br)cc4CCc4cc(Cl)cc(Br)c43)CC2)CC1 [Example 12] | –
16 | 0.9 nM | NC(=O)CNC(=O)N1CCC(CC(=O)N2CCC([C@H]3c4ncc(Br)cc4CCc4cc(Cl)cc(Br)c43)CC2)CC1 [Example 13] | 25 nM
